Results as given in patent US20200331904A1, “3-AMINO-[1,2,4]-TRIAZOLE DERIVATIVES AND THEIR USE FOR CONTROLLING UNDESIRED PLANT GROWTH” (Bayer CropScience Aktiengesellschaft, priority 2017, published 2020).

Assays:
Assay type in all cases: in vivo
Details in all cases: application rate 320 g/ha, scored visually after about 3 weeks
Viola tricolor = assay: Pre-emergence herbicidal efficacy, VIOTR
Description: (§1) C.1 Pre-Emergence Herbicidal Action and Crop Plant Compatibility
(§2) Seeds of monocotyledonous and dicotyledonous weed plants and crop plants are placed in plastic or organic planting pots and covered with soil. The compounds of the invention, formulated in the form of wettable powders (WP) or as emulsion concentrates (EC), are then applied onto the surface of the covering soil as aqueous suspension or emulsion with addition of 0.5% additive at a water application rate of […] (converted). After the treatment, the pots are placed in a greenhouse and kept under good growth conditions for the trial plants. After about 3 weeks, the effect of the preparations is scored visually in comparison with untreated controls as percentages. For example, 100% activity=the plants have died, 0% activity=like control plants.
(§3) ABUTH: Abutilon theophrasti ALOMY: Alopecurus myosuroides AMARE: Amaranthus retroflexus AVEFA: Avena fatua CYPES: Cyperus esculentus ECHCG: Echinochloa crus-galli LOLMU: Lolium multiflorum MATIN: Matricaria inodora PHBPU: Ipomoea purpurea POLCO: Polygonum convolvulus SETVI: Setaria viridis STEME: Stellaria media VERPE: Veronica persica VTOTR: Viola tricolor

Stellaria media = assay: Pre-emergence herbicidal efficacy, STEME
Description: as §1, §2, §3

Matricaria inodora = assay: Pre-emergence herbicidal efficacy, MATIN
Description: as §1, §2, §3

Compound	Herbicidal efficacy against VIOTR (Viola tricolor)	Herbicidal efficacy against STEME (Stellaria media)	Herbicidal efficacy against MATIN (Matricaria inodora)
Cc1ccc2c(c1)C(Nc1nc3n(n1)CCN(C(=O)C1CCCCC1)C3)C(C)C2 (stereo not shown) [Example I-172]	100%	100%	90%
Cc1ccc2c(c1)[C@H](Nc1nc3n(n1)CCN(C(=O)c1ccc(Cl)cc1)C3)CCC2 [Example I-186]	100%	100%	80%
Cc1ccc2c(c1)C(Nc1nc3n(n1)CCN(C(=O)c1ccccc1Cl)C3)C(C)C2 (stereo not shown) [Example I-169]	100%	100%	90%
Cc1ccc2c(c1)[C@H](Nc1nc3n(n1)CCN(C(=O)c1ccccc1)C3)CC2 [Example I-174]	100%	100%	90%
O=S1(=O)CCCn2nc(NC3CCOc4ccccc43)nc21 (stereo not shown) [Example I-242]		80%	100%
O=S1(=O)CCCCn2nc(NC3CCc4ccccc43)nc21 (stereo not shown) [Example I-236]	100%	100%	100%
Cc1ccc2c(c1)C(Nc1nc3n(n1)CCCN3S(=O)(=O)C(C)C)CCC2 (stereo not shown) [Example I-325]		100%	
Cc1ccc2c(c1)[C@H](Nc1nc3n(n1)CCN(C(=O)c1ccc(Cl)cc1)C3)CC2 [Example I-179]	70%	100%	90%
CC(C)N1C(=O)CCn2nc(NC3CCCc4ccccc43)nc21 (stereo not shown) [Example I-262]	100%	100%	
Cc1ccc2c(c1)C(Nc1nc3n(n1)CCN(C(=O)c1ccccc1)C3)C(C)C2 (stereo not shown) [Example I-166]	100%	100%	90%
Cc1ccc2c(c1)[C@H](Nc1nc3n(n1)CCN(C(=O)c1cccc(Cl)c1)C3)CCC2 [Example I-185]	100%	100%	90%
CS(=O)(=O)N1CCn2nc(NC3CCCc4ccccc43)nc2C1 (stereo not shown) [Example I-097]	100%	100%	100%
c1ccc2c(c1)CCC2Nc1nc2n(n1)CCCCS2 (stereo not shown) [Example I-212]	100%	100%	100%
Cc1ccc2c(c1)[C@H](Nc1nc3n(n1)CCN(C(=O)c1ccccc1Cl)C3)CCC2 [Example I-184]	100%	100%	90%
c1ccc2c(c1)CCCC2Nc1nc2n(n1)CCCCS2 (stereo not shown) [Example I-216]	100%	100%	100%
Cc1ccc2c(c1)[C@H](Nc1nc3n(n1)CCN(C(=O)c1cccc(C(F)(F)F)c1)C3)CC2 [Example I-176]	90%	80%	80%
Cc1ccc2c(c1)[C@H](Nc1nc3n(n1)CCN(C(=O)c1cccc(C(F)(F)F)c1)C3)CCC2 [Example I-183]	90%	100%	90%
O=C1CCn2nc(NC3CCCc4ccccc43)nc2N1CC1CCCCC1 (stereo not shown) [Example I-271]	90%	90%	90%
O=C1CCn2nc(NC3CCOc4ccccc43)nc2N1CC1CCCCC1 (stereo not shown) [Example I-255]	100%	90%	
c1ccc2c(c1)OCCC2Nc1nc2n(n1)CCCCS2 (stereo not shown) [Example I-211]	100%	100%	100%

Compound	Herbicidal efficacy against VIOTR (Viola tricolor)	Herbicidal efficacy against STEME (Stellaria media)	Herbicidal efficacy against MATIN (Matricaria inodora)
O=S(=O)(Cc1ccccc1)N1CCn2nc(NC3CCCc4ccccc43)nc2C1 (stereo not shown) [Example I-078]	100%	90%	70%
O=C(C1CC1)N1CCn2nc(N[C@@H]3CCc4ccccc43)nc2C1 [Example I-160]	100%	100%	90%
c1ccc2c(c1)CCCC2Nc1nc2n(n1)CCCS2 (racemic) [Example I-209]	100%	100%	100%
CC(=O)N1CCn2nc(N[C@@H]3CCc4ccccc43)nc2C1 [Example I-158]	100%	100%	90%
c1ccc2c(c1)OCCC2Nc1nc2n(n1)CCCS2 (racemic) [Example I-204]		100%	100%
O=C(C1CC1)N1CCn2nc(NC3CCCc4ccccc43)nc2C1 (stereo not shown) [Example I-060]	90%	100%	100%
Cc1ccc2c(c1)[C@H](Nc1nc3n(n1)CCNC3)CCC2 [Example I-157]	100%	100%	80%
Cc1ccc2c(c1)[C@H](Nc1nc3n(n1)CCN(C(=O)c1cccc(Cl)c1)C3)CC2 [Example I-178]	100%	100%	70%
O=S(=O)(Cc1ccccc1)N1CCn2nc(NC3CCOc4ccccc43)nc2C1 (stereo not shown) [Example I-076]	100%	90%	
CS(=O)(=O)N1CCCn2nc(NC3CCCc4ccccc43)nc21 (stereo not shown) [Example I-305]	100%	100%	100%
Cc1ccc2c(c1)[C@H](Nc1nc3n(n1)CCN(C(=O)c1ccccc1)C3)CCC2 [Example I-181]	100%	100%	100%
CC(C)S(=O)(=O)N1CCn2nc(NC3CCCc4ccccc43)nc2C1 (stereo not shown) [Example I-094]	100%	100%	100%
Cc1ccc2c(c1)C(Nc1nc3n(n1)CCN(C(=O)c1cccc(C(F)(F)F)c1)C3)C(C)C2 (stereo not shown) [Example I-168]	100%	90%	80%
O=S1(=O)CCCn2nc(NC3CCCc4ccccc43)nc21 (stereo not shown) [Example I-252]		100%	100%
O=C1CCn2nc(NC3CCCc4ccccc43)nc2N1CC1CC1 (stereo not shown) [Example I-228]	100%	100%	100%
O=C1CCn2nc(NC3CCc4ccccc43)nc2N1CC1CCCCC1 (stereo not shown) [Example I-223]	90%	100%	90%
Cc1ccc2c(c1)[C@H](Nc1nc3n(n1)CCN(C(=O)c1ccccc1Cl)C3)CC2 [Example I-177]	100%	100%	90%
O=C(c1ccccc1)N1CCn2nc(N[C@@H]3CCCc4ccccc43)nc2C1 [Example I-164]	100%	100%	90%
CC(=O)N1CCn2nc(NC3CCCc4ccccc43)nc2C1 (stereo not shown) [Example I-061]	100%	100%	100%
